Test results from patent publication US9707200B2, “Metabolism-improving agent comprising rare fatty acid” (KYOTO UNIVERSITY, priority 2012, dated 2017).

Columns and labels:
[1] = tested on: HepG2 cells; assay: Effect on LXR agonist-induced expression of fatty acid synthesis genes, real-time PCR; assay type: cell-based, human; details: 10 nM T0901317 + 60 μM fatty acid, 24 hr
Description: Using human liver cancer-derived HepG2 cells (cell No.; JCRB1054, the Health Science Research Resources Bank), a suppressive effect on fatty acid synthesis promotion induced by LXR agonist was evaluated by reference to the method of Zaima et al. (Journal of Lipid Research 47, 2712-2717, 2006).
HepG2 cells (2.0×10^5 cells/mL) were cultured in DMEM medium containing 10% FES for 24 hr, and the medium was exchanged with 0.1% BSA-containing DMEM medium containing 10 nM LXR agonist T0901317 (Cayman Chemicals) and 60 μM various fatty acid. After culture for 24 hr, the cells were recovered, and total RNA was extracted using Sepasol reagent (Nacalai Tesque). After DNase treatment, reverse transcription was performed using SuperScriptII (Invitrogen) to give a cDNA solution. Using SYBR Green Mix (Bio-Rad, Richmond, Calif.) and gene-specific primer (Table 1), real-time PCR was performed as follows.
1. Reaction at 96° C., 15 min, 2. reaction at 96° C., 15 sec, 3. reaction at 60° C. for 30 sec, 4. measurement of fluorescence, 5. 2-4 were repeated 40 times, 6. the melting curve was measured from 65° C. to 95° C. at 0.4° C. intervals. As the internal standard, 18S rRNA was used. The genes involved in the fatty acid synthesis as measured were Sterol regulatory element binding protein-1c (SREBP-1c), Stearoyl coenzyme A desaturase-1 (SCD-1), Fatty acid synthase (FAS), and Acetyl CoA carboxylase-1 and -2 (ACC-1, 2). As for the amount of accumulated intracellular TG, the lipid was extracted with chloroform-methanol, and quantified by triglyceride-′E Test Wako (Wako Pure Chemical Industries, Ltd.).

[2] = molecular target: T1, PPARα (Homo sapiens, UniProt Q07869); assay: PPARα ligand activity, GAL4-PPARα reporter luciferase assay in CV-1 cells; assay type: cell-based; details: 24 hr incubation, KetoA and HYA each at 30 μM, other fatty acids by a similar method
T1 construct: expressed in transfected cells; host or cells: CV-1 (African green monkey kidney)
T1 sequence (Q07869 239-466 limits assumed): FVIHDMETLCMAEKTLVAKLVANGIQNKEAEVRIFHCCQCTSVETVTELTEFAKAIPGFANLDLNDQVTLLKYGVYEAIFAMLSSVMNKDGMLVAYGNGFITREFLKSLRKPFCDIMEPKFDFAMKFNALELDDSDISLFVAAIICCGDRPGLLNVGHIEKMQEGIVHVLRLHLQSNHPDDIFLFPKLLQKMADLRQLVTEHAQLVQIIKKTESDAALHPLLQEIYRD
Description: (§1) To evaluate the function of oxo fatty acid and the like, PPARα, γ-activating action was measured first. The measurement was performed in reference to Nobuyuki Takahashi et al., FEES Letters 514 (2002) p. 315-322, “Dual action of isoprenols from herbal medicines on both PPARgamma and PPARalpha in 3T3-L1 adipocytes and HepG2 hepatocytes.”, the section of Materials and Methods “Reporter plasmids and luciferase assays”. To be specific, a plasmid containing DNA encoding a fused protein of PPARα, γ ligand binding region and GAL4 DNA binding region (pM-hPPARα or pM-hPPARγ), a reporter plasmid containing GAL4 binding DNA sequence linked to luciferase (p4xUASg-tk-luc), and internal control (pRL-CMV) to standardize transfection efficiency were introduced into CV-1 cell derived from the kidney of African green monkey. The ligand described below was added to the cells and, after incubation for 24 hr, luciferase activity was measured. As a ligand, KetoA and HYA were each added at 30 μM.
(§2) The concentration of the sample was adjusted with ethanol. Ethanol was used as a negative control, […], and GW7647 (10 nM) and Troglitazone (5 μM) were used as […].

[3] = molecular target: T2, PPARγ (Homo sapiens, UniProt P37231); assay: PPARγ ligand activity, GAL4-PPARγ reporter luciferase assay in CV-1 cells; assay type: cell-based; details: 24 hr incubation, KetoA and HYA each at 30 μM, other fatty acids by a similar method
T2 construct: expressed in transfected cells; host or cells: CV-1 (African green monkey kidney)
T2 sequence (P37231 238-503 limits assumed): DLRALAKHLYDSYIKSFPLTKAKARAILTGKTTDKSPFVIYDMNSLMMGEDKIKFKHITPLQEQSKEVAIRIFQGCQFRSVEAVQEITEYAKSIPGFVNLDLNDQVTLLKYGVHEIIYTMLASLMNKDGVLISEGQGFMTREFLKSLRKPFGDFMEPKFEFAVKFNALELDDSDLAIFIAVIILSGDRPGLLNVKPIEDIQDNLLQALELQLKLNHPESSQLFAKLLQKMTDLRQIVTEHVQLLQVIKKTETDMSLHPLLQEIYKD
Description: as §1, §2

Row | Structure (SMILES) | ACC1 mRNA expression induced by LXR agonist [1] | ACC2 mRNA expression induced by LXR agonist [1] | FAS mRNA expression induced by LXR agonist [1] | SCD-1 mRNA expression induced by LXR agonist [1] | suppression of SREBP-1c mRNA expression induced by LXR agonist [1] | PPARα agonist activity (relative luciferase activity) [2] | PPARγ agonist activity (relative luciferase activity) [3]
1 | CCCCC/C=C\CC(O)CCCCCCCCC(=O)O (stereo not drawn) [HYA, 10-hydroxy-cis-12-octadecenoic acid] | down regulation | down regulation | down regulation | down regulation | strong suppressive action | PPARα agonist activity | some PPARγ agonist activity
2 | CCCCC/C=C\CC(=O)CCCCCCCCC(=O)O [KetoA, 10-oxo-cis-12-octadecenoic acid] | down regulation | down regulation | down regulation | down regulation | strong suppressive action | strong PPARα and γ agonist activity | strong PPARα and γ agonist activity
